Patent publication US9902702B2, “Spirocycloheptanes as inhibitors of rock” (BRISTOL-MYERS SQUIBB COMPANY, priority 2014, dated 2018)
Structures can show the parent of a compound that is named as a salt.

The compounds below were run against ROCK2 (Homo sapiens, UniProt O75116) (assay: ROCK assay: phosphorylation of FITC peptide substrate, LABCHIP 3000 mobility shift). Settings: 5 μM ATP, 1.5 μM peptide substrate; read-out: ROCK2 Activity (ROCK IC50 range).
Assay type: biochemical
How it was run: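 Rho kinase variant phosphorylates 1.5 μM FITC-AHA-AKRRRLSSLRA-OH with 5 μM ATP in 20 mM HEPES pH 7.5, 20 mM MgCl2, 0.015% Brij-35, 4 mM DTT, DMSO <2%. EDTA stops the reaction, and phospho and non-phospho peptides are resolved by LabChip 3000 mobility shift. IC50 from dose-response curve fit.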

Sequence of ROCK2 (O75116 whole entry, species assumed): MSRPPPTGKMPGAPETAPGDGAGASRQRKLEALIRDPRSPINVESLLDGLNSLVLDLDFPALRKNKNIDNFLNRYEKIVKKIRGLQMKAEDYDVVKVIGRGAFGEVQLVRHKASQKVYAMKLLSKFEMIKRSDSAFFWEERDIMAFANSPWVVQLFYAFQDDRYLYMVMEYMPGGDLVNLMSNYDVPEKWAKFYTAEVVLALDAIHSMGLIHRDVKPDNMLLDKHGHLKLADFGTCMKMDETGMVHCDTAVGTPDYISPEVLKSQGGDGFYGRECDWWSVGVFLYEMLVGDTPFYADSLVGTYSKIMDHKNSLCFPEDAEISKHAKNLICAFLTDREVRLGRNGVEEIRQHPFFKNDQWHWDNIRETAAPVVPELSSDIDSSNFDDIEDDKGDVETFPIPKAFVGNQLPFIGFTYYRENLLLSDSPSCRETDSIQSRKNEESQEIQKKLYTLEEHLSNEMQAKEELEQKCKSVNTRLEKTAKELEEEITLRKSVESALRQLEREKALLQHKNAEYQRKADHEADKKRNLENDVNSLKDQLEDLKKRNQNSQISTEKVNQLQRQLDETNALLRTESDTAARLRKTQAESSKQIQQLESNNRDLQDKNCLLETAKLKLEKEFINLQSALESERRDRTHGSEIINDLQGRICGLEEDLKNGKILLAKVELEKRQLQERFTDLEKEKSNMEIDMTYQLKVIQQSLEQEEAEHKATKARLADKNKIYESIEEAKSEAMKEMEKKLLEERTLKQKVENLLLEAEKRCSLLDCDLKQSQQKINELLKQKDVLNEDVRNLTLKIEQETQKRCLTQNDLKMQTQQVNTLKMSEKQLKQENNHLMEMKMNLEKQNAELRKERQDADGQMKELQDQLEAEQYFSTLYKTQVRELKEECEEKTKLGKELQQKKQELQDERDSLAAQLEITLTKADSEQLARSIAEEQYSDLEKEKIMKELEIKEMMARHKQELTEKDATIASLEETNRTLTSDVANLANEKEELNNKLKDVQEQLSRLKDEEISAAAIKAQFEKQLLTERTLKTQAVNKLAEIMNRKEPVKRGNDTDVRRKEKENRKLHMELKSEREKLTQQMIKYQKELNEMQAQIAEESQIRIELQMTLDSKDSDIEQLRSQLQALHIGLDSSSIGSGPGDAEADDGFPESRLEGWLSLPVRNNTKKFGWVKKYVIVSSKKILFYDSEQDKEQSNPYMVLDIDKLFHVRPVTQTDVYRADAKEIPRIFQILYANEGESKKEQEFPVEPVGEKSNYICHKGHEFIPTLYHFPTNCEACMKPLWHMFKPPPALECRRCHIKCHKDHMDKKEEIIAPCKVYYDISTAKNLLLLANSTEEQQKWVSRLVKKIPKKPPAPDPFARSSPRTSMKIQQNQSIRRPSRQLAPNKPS

How did the IC50 turn out when `O=C(NC1CC2(C1)CC(c1n[nH]c(=O)c3ccccc13)C2)N1Cc2ccc(-c3cnn(C4CC4)c3)cc2C1` [Example 247, 5-(1-cyclopropyl-1H-pyrazol-4-yl)-N-((aR)-6-(4-oxo-3,4-dihydrophthalazin-1-yl)spiro[3.3]heptan-2-yl)isoindoline-2-carboxamide] was run?
The IC50 was 2.01 to 5 nM.

With `Cn1cc(-c2ccc3c(c2)CN(C(=O)NC2CC4(C2)CC(c2n[nH]c(=O)c5ccccc25)C4)C3)c(C(F)(F)F)n1` [Example 248, 5-(1-methyl-3-(trifluoromethyl)-1H-pyrazol-4-yl)-N-((aR)-6-(4-oxo-3,4-dihydrophthalazin-1-yl)spiro[3.3]heptan-2-yl)isoindoline-2-carboxamide] as the compound, how does the IC50 read?
The IC50 was 5.1 to 15 nM.

With `CC(C)n1cc(-c2ccc3c(c2)CN(C(=O)NC2CC4(C2)CC(c2n[nH]c(=O)c5ccccc25)C4)C3)c(C(F)(F)F)n1` [Example 249, 5-(1-isopropyl-3-(trifluoromethyl)-1H-pyrazol-4-yl)-N-((aR)-6-(4-oxo-3,4-dihydrophthalazin-1-yl)spiro[3.3]heptan-2-yl)isoindoline-2-carboxamide] as the compound, how does the IC50 read?
The IC50 was 5.1 to 15 nM.

For `Cn1cc(-c2ccc3c(c2)CN(C(=O)NC2CC4(C2)CC(c2n[nH]c(=O)c5ccccc25)C4)C3)cn1` [Example 250, 5-(1-methyl-1H-pyrazol-4-yl)-N-((aR)-6-(4-oxo-3,4-dihydrophthalazin-1-yl)spiro[3.3]heptan-2-yl)isoindoline-2-carboxamide], which IC50 is on record?
The IC50 was 5.1 to 15 nM.

How did the IC50 turn out when `O=C(NC1CC2(C1)CC(c1n[nH]c(=O)c3ccccc13)C2)N1Cc2ccc(-c3cnn(C4CCOCC4)c3)cc2C1` [Example 251, N-((aR)-6-(4-oxo-3,4-dihydrophthalazin-1-yl)spiro[3.3]heptan-2-yl)-5-(1-(tetrahydro-2H-pyran-4-yl)-1H-pyrazol-4-yl)isoindoline-2-carboxamide] was run?
Its IC50 is 5.1 to 15 nM.

With `CC(C)(C)n1cc(-c2ccc3c(c2)CN(C(=O)NC2CC4(C2)CC(c2n[nH]c(=O)c5ccccc25)C4)C3)cn1` [Example 252, 5-(1-(tert-butyl)-1H-pyrazol-4-yl)-N-((aR)-6-(4-oxo-3,4-dihydrophthalazin-1-yl)spiro[3.3]heptan-2-yl)isoindoline-2-carboxamide] as the compound, how does the IC50 read?
Its IC50 is 5.1 to 15 nM.

For `[2H]C([2H])([2H])n1cc(-c2ccc3c(c2)CN(C(=O)NC2CC4(C2)CC(c2n[nH]c(=O)c5ccccc25)C4)C3)cn1` [Example 253, 5-(1-(^2H3)methyl-1H-pyrazol-4-yl)-N-((aR)-6-(4-oxo-3,4-dihydrophthalazin-1-yl)spiro[3.3]heptan-2-yl)isoindoline-2-carboxamide], which IC50 is on record?
Its IC50 is 5.1 to 15 nM.

For `CC1(C)CN(C(=O)NC2CC3(C2)CC(c2n[nH]c(=O)c4ccccc24)C3)c2ccccc21` (centres unmarked) [Example 255], which IC50 is on record?
Its IC50 is 5.1 to 15 nM.

Which IC50 does the source give for `O=C(NC1CC2(C1)CC(c1n[nH]c(=O)c3ccccc13)C2)N1CCc2cccnc21` [Example 256, N-((aR)-6-(4-oxo-3,4-dihydrophthalazin-1-yl)spiro[3.3]heptan-2-yl)-2,3-dihydro-1H-pyrrolo[2,3-b]pyridine-1-carboxamide] here?
The IC50 was 15.1 to 100 nM.

`O=C(NC1CC2(C1)CC(c1n[nH]c(=O)c3ccccc13)C2)N1Cc2cccnc2C1` (centres unmarked) [Example 257] was tested. Which IC50 did it give?
The IC50 was 15.1 to 100 nM.

How did the IC50 turn out when `COc1ccc2c(c1)CCN2C(=O)NC1CC2(C1)CC(c1n[nH]c(=O)c3ccccc13)C2` [Example 258, 5-methoxy-N-((aR)-6-(4-oxo-3,4-dihydrophthalazin-1-yl)spiro[3.3]heptan-2-yl)indoline-1-carboxamide] was run?
The IC50 was 5.1 to 15 nM.

With `O=C(NC1CC2(C1)CC(c1n[nH]c(=O)c3ccccc13)C2)N1CCc2ccc(C(F)(F)F)cc21` [Example 259, N-((aR)-6-(4-oxo-3,4-dihydrophthalazin-1-yl)spiro[3.3]heptan-2-yl)-6-(trifluoromethyl)indoline-1-carboxamide] as the compound, how does the IC50 read?
The IC50 was 5.1 to 15 nM.

Which IC50 does the source give for `CN(C)S(=O)(=O)c1ccc2c(c1)CCN2C(=O)NC1CC2(C1)CC(c1n[nH]c(=O)c3ccccc13)C2` [Example 260, 5-(N,N-dimethylsulfamoyl)-N-((aR)-6-(4-oxo-3,4-dihydrophthalazin-1-yl)spiro[3.3]heptan-2-yl)indoline-1-carboxamide] here?
The IC50 was 5.1 to 15 nM.

Which IC50 does the source give for `O=C(NC1CC2(C1)CC(c1n[nH]c(=O)c3ccccc13)C2)N1CC(CN2CCOCC2)c2ccccc21` [Example 261, 3-(morpholinomethyl)-N-((aR)-6-(4-oxo-3,4-dihydrophthalazin-1-yl)spiro[3.3]heptan-2-yl)indoline-1-carboxamide] here?
The IC50 was 15.1 to 100 nM.

Which IC50 does the source give for `Cc1ccc(-c2ncc3c(n2)CN(C(=O)NC2CC4(C2)CC(c2n[nH]c(=O)c5ccccc25)C4)C3)cc1` [Example 262, N-((aR)-6-(4-oxo-3,4-dihydrophthalazin-1-yl)spiro[3.3]heptan-2-yl)-2-(p-tolyl)-5H-pyrrolo[3,4-d]pyrimidine-6(7H)-carboxamide] here?
Its IC50 is 100 to 2100 nM.

How did the IC50 turn out when `COc1ccc2c(c1)CN(C(=O)NC1CC3(C1)CC(c1n[nH]c(=O)c4ccccc14)C3)C2` [Example 263, 5-methoxy-N-((aR)-6-(4-oxo-3,4-dihydrophthalazin-1-yl)spiro[3.3]heptan-2-yl)isoindoline-2-carboxamide] was run?
The IC50 was 5.1 to 15 nM.

How did the IC50 turn out when `O=C(NC1CC2(C1)CC(c1n[nH]c(=O)c3ccccc13)C2)N1Cc2ccncc2C1` [Example 264, N-((aR)-6-(4-oxo-3,4-dihydrophthalazin-1-yl)spiro[3.3]heptan-2-yl)-1H-pyrrolo[3,4-c]pyridine-2(3H)-carboxamide] was run?
Its IC50 is 15.1 to 100 nM.

With `O=C(N[C@H]1CC2(C1)C[C@H](c1n[nH]c(=O)c3ccccc31)C2)N1CC2(CCNCC2)c2ccccc21` (stereo partly drawn) [Example 265, N-((aR)-6-(4-oxo-3,4-dihydrophthalazin-1-yl)spiro[3.3]heptan-2-yl)spiro[indoline-3,4′-piperidine]-1-carboxamide] as the compound, how does the IC50 read?
The IC50 was 100 to 2100 nM.

Which IC50 does the source give for `[H][C@]1(c2n[nH]c(=O)c3ccccc32)C[C@]2(C[C@@H](N(C)C(=O)c3nn(C)c4ccccc34)C2)C1` (stereo partly drawn) [Example 266, N,1-dimethyl-N-((aR)-6-(4-oxo-3,4-dihydrophthalazin-1-yl)spiro[3.3]heptan-2-yl)-1H-indazole-3-carboxamide] here?
The IC50 was 100 to 2100 nM.

Which IC50 does the source give for `[H][C@]1(c2n[nH]c(=O)c3ccccc32)C[C@]2(C[C@@H](N(CC)C(=O)c3nn(C)c4ccccc34)C2)C1` (stereo partly drawn) [Example 267, N-ethyl-1-methyl-N-((aR)-6-(4-oxo-3,4-dihydrophthalazin-1-yl)spiro[3.3]heptan-2-yl)-1H-indazole-3-carboxamide] here?
The IC50 was 100 to 2100 nM.

With `[H][C@]1(c2n[nH]c(=O)c3ccccc32)C[C@]2(C[C@@H](NC(=O)c3cnn4cc(OCC(C)(C)OC(=O)CN)ccc34)C2)C1` (stereo partly drawn) [Example 268, 2-methyl-1-((3-(((aR)-6-(4-oxo-3,4-dihydrophthalazin-1-yl)spiro[3.3]heptan-2-yl)carbamoyl)pyrazolo[1,5-a]pyridin-6-yl)oxy)propan-2-yl2-aminoacetate, TFA] as the compound, how does the IC50 read?
Its IC50 is 0.2 to 2 nM.

`[H][C@]1(c2n[nH]c(=O)c3ccccc32)C[C@]2(C[C@@H](NC(=O)c3cnn4cc(OCC(C)(C)OC(=O)[C@@H](N)C(C)C)ccc34)C2)C1` (stereo partly drawn) [Example 269, (S)-2-methyl-1-((3-(((aR)-6-(4-oxo-3,4-dihydrophthalazin-1-yl)spiro[3.3]heptan-2-yl)carbamoyl)pyrazolo[1,5-a]pyridin-6-yl)oxy)propan-2-yl2-amino-3-methylbutanoate, TFA] was tested. Which IC50 did it give?
Its IC50 is 0.2 to 2 nM.

How did the IC50 turn out when `[H][C@]1(c2n[nH]c(=O)c3ccccc32)C[C@]2(C[C@@H](NC(=O)c3cnn4cc(OCC(C)(C)OC(=O)[C@H](C)N)ccc34)C2)C1` (stereo partly drawn) [Example 270, (S)-2-methyl-1-((3-(((aR)-6-(4-oxo-3,4-dihydrophthalazin-1-yl)spiro[3.3]heptan-2-yl)carbamoyl)pyrazolo[1,5-a]pyridin-6-yl)oxy)propan-2-yl2-aminopropanoate, TFA] was run?
The IC50 was 0.2 to 2 nM.

For `CC(C)(O)COc1ccc2c(C(=O)NC3CC4(C3)CC(c3c[nH]c(=O)c5ccccc35)C4)cnn2c1` (centres unmarked) [Example 271, 6-(2-hydroxy-2-methylpropoxy)-N-(6-(1-oxo-1,2-dihydroisoquinolin-4-yl)spiro[3.3]heptan-2-yl)pyrazolo[1,5-a]pyridine-3-carboxamide], which IC50 is on record?
The IC50 was 2.01 to 5 nM.

How did the IC50 turn out when `CC(C)(C)OC(=O)N1CCc2c(C(=O)N[C@H]3CC4(C3)C[C@H](c3n[nH]c(=O)c5ccccc53)C4)csc2C1` (stereo partly drawn) [Example 272, tert-butyl 3-(((aR)-6-(4-oxo-3,4-dihydrophthalazin-1-yl)spiro[3.3]heptan-2-yl)carbamoyl)-4,5-dihydrothieno[2,3-c]pyridine-6(7H)-carboxylate] was run?
Its IC50 is 5.1 to 15 nM.

`CC(=O)N1CCc2c(C(=O)N[C@H]3CC4(C3)C[C@H](c3n[nH]c(=O)c5ccccc53)C4)csc2C1` (stereo partly drawn) [Example 274, 6-acetyl-N-((aR)-6-(4-oxo-3,4-dihydrophthalazin-1-yl)spiro[3.3]heptan-2-yl)-4,5,6,7-tetrahydrothieno[2,3-c]pyridine-3-carboxamide] was tested. Which IC50 did it give?
Its IC50 is 5.1 to 15 nM.

Which IC50 does the source give for `COC(=O)N1CCc2c(C(=O)N[C@H]3CC4(C3)C[C@H](c3n[nH]c(=O)c5ccccc53)C4)csc2C1` (stereo partly drawn) [Example 275, methyl 3-(((aR)-6-(4-oxo-3,4-dihydrophthalazin-1-yl)spiro[3.3]heptan-2-yl)carbamoyl)-4,5-dihydrothieno[2,3-c]pyridine-6(7H)-carboxylate] here?
The IC50 was 5.1 to 15 nM.

How did the IC50 turn out when `CS(=O)(=O)N1CCc2c(C(=O)N[C@H]3CC4(C3)C[C@H](c3n[nH]c(=O)c5ccccc53)C4)csc2C1` (stereo partly drawn) [Example 276, 6-(methylsulfonyl)-N-((aR)-6-(4-oxo-3,4-dihydrophthalazin-1-yl)spiro[3.3]heptan-2-yl)-4,5,6,7-tetrahydrothieno[2,3-c]pyridine-3-carboxamide] was run?
The IC50 was 15.1 to 100 nM.

`Cn1cc(-c2ccc3c(C(=O)N[C@H]4CC5(C4)C[C@H](c4n[nH]c(=O)c6ccccc64)C5)onc3c2)cn1` (stereo partly drawn) [Example 277, 6-(1-methyl-1H-pyrazol-4-yl)-N-((aR)-6-(4-oxo-3,4-dihydrophthalazin-1-yl)spiro[3.3]heptan-2-yl)benzo[c]isoxazole-3-carboxamide] was tested. Which IC50 did it give?
Its IC50 is 0.2 to 2 nM.
